From PMC3832545 (PLoS ONE, 2013)

Legend:
[1] = test system: female and male rats; conditions: supra-pharmacological doses, ref [47]; cited from earlier work
Excerpt: However, the in vitro ...

[2] = cited from earlier work
Excerpt: Further studies are needed to clarify if this effect is also observed during other experimental conditions. However, our in vivo data for ...

[3] = test system: P-Akt (Ser473); test: Signalling in MC38 cells, Western blot P-Akt; type: cell-based, mouse; conditions: covers both Akt (Ser473) and p70S6K (Thr389)
Description: MC38 cells (mouse cell line described by Corbett et al. (1975) and generously provided by Dr. Pnina Brodt, McGill University, Montreal, QC) and MCF-7 cells (ATCC, Manassas, VA, USA), were cultivated in DMEM medium containing 4.5 g/l glucose (Wisent Inc., Montreal, QC, Canada) supplemented with 10% (v/v) fetal bovine serum (FBS, Invitrogen) and 20 μg/ml gentamicin (Sandoz Canada, Boucherville, QC, Canada) (i.e., growth medium). Cells used in animal experiments were trypsinized, washed once in PBS and resuspended in PBS (4°C) at a concentration of 5.0 × 10^6 cells/ml and kept on ice until sc injection in the mice. For signalling experiments MC38 cells were cultivated in growth medium for two days until 80-90% confluent, cell cultures were then rinsed once in PBS (room temperature), and starvation medium (similar to growth medium, except it contained only 0.25% (v/v) FBS and no phenol red) was added for 3 h. […] Each signalling experiment comprised two replicate samples per treatment and three independent experiments were performed. […] Data describing IR and IGF-1R expression in various mouse tissues were analysed in a one-way ANOVA followed by pairwise comparisons between tissues using multiple t-test with Bonferroni correction.

Row | Substance | Incidence of mammary carcinoma and pheochromocytoma [1] | Mitogenic potency relative to HI, some cell lines ([2]; ref [10], [13], [46]) | Mitogenic potential relative to HI in vitro ([2]; ref [14]) | Increase of phosphorylation of Akt (Ser473) and p70S6K (Thr389) compared to HI [3]
1 | IGF-1: recombinant human IGF-1 (Increlex, IPSEN Pharma GmbH) | increased the incidence |  |  | 
2 | insulin analog B10Asp [X10] |  | 10 fold | 3–15 fold | 35–90%
